{"source": "patent US20140038989A1", "about": "“TETRAHYDROPYRAZOLO [1,5-A] PYRIMIDINE AS ANTI-TUBERCULOSIS COMPOUNDS” (Glaxo Group Limited, priority 2011, published 2014)", "tested_on": "Mycobacterium tuberculosis H37Rv", "test": "Mycobacterium tuberculosis H37Rv Inhibition Assay (Whole Cell Assay)", "assay_type": "cell-based", "details": "ATCC 25618 / H37Rv, H37Rv strain (ATCC25618), Middlebrook 7H9, six days at 37° C., resazurin fluorescence after 48 hours", "data": [{"compound": "Cc1ccc([C@H]2C[C@@H](C(F)(F)F)n3ncc(C(=O)NCc4ccc5c(c4)OCCO5)c3N2)cc1", "note": "(relative stereo) [Example 50, Cis-N-((2,3-dihydrobenzo[b][1,4]dioxin-6-yl)methyl)-5-(p-tolyl)-7-(trifluoromethyl)-4,5,6,7-tetrahydropyrazolo[1,5-a]pyrimidine-3-carboxamide]", "values": [{"measurement": "MIC", "value": "> 2", "unit": "µM"}]}, {"compound": "CCc1ccc([C@H]2C[C@@H](C(F)(F)F)n3ncc(C(=O)NCc4cccc(F)c4)c3N2)cc1", "note": "(relative stereo) [Example 60, Cis-5-(4-ethylphenyl)-N-(3-fluorobenzyl)-7-(trifluoromethyl)-4,5,6,7-tetrahydropyrazolo[1,5-a]pyrimidine-3-carboxamide]", "values": [{"measurement": "MIC", "value": "≤ 1", "unit": "µM"}]}, {"compound": "COc1ccc(CNC(=O)c2cnn3c2NC(c2ccc(OC)cc2)CC3C(F)(F)F)cc1", "note": "(centres unmarked) [Example 54, N-(4-methoxybenzyl)-5-(4-methoxyphenyl)-7-(trifluoromethyl)-4,5,6,7-tetrahydropyrazolo[1,5-a]pyrimidine-3-carboxamide]", "values": [{"measurement": "MIC", "value": "> 2", "unit": "µM"}]}, {"compound": "CCc1ccc([C@H]2C[C@@H](C(F)(F)F)n3ncc(C(=O)NCc4ccncc4)c3N2)cc1", "note": "(relative stereo) [Example 48, Cis-5-(4-ethylphenyl)-N-(pyridin-4-ylmethyl)-7-(trifluoromethyl)-4,5,6,7-tetrahydropyrazolo[1,5-a]pyrimidine-3-carboxamide]", "values": [{"measurement": "MIC", "value": "> 2", "unit": "µM"}]}, {"compound": "CCc1ccc([C@H]2C[C@@H](C(F)(F)F)n3ncc(C(=O)NCc4ccc(C)cn4)c3N2)cc1", "note": "(relative stereo) [Example 20, Cis-5-(4-ethylphenyl)-N-((5-methylpyridin-2-yl)methyl)-7-(trifluoromethyl)-4,5,6,7-tetrahydropyrazolo[1,5-a]pyrimidine-3-carboxamide]", "values": [{"measurement": "MIC", "value": "1 to 2", "unit": "µM"}]}, {"compound": "CCc1ccc([C@H]2C[C@@H](C(F)(F)F)n3ncc(C(=O)NCc4ccc(Cl)nc4)c3N2)cc1", "note": "[Example 103, (5R,7S)—N-((6-chloropyridin-3-yl)methyl)-5-(4-ethylphenyl)-7-(trifluoromethyl)-4,5,6,7-tetrahydropyrazolo[1,5-a]pyrimidine-3-carboxamide]", "values": [{"measurement": "MIC", "value": "≤ 1", "unit": "µM"}]}, {"compound": "CCc1ccc([C@H]2C[C@@H](C(F)(F)F)n3ncc(C(=O)NCc4ccc(F)c(C)n4)c3N2)cc1", "note": "[Example 105, (5R,7S)-5-(4-ethylphenyl)-N-((5-fluoro-6-methylpyridin-2-yl)methyl)-7-(trifluoromethyl)-4,5,6,7-tetrahydropyrazolo[1,5-a]pyrimidine-3-carboxamide]", "values": [{"measurement": "MIC", "value": "≤ 1", "unit": "µM"}]}, {"compound": "CCc1ccc([C@H]2C[C@@H](C(C)(C)C)n3ncc(C(=O)NCc4ccc5c(c4)OCO5)c3N2)cc1", "note": "(relative stereo) [Example 36, Cis-N-(benzo[d][1,3]-dioxol-5-ylmethyl)-7-(tert-butyl)-5-(4-ethylphenyl)-4,5,6,7-tetrahydropyrazolo[1,5-a]pyrimidine-3-carboxamide]", "values": [{"measurement": "MIC", "value": "1 to 2", "unit": "µM"}]}, {"compound": "Cc1ccc([C@H]2C[C@@H](C(F)(F)F)n3ncc(C(=O)NCc4cccc(C)c4)c3N2)cc1", "note": "(relative stereo) [Example 24, Cis-N-(3-methylbenzyl)-5-(p-tolyl)-7-(trifluoromethyl)-4,5,6,7-tetrahydropyrazolo[1,5-a]pyrimidine-3-carboxamide]", "values": [{"measurement": "MIC", "value": "≤ 1", "unit": "µM"}]}, {"compound": "CCc1ccc([C@H]2C[C@@H](C(F)(F)F)n3ncc(C(=O)NCc4cnc(OC)c(F)c4)c3N2)cc1", "note": "[Example 104, (5R,7S)-5-(4-ethylphenyl)-N-((5-fluoro-6-methoxypyridin-3-yl)methyl)-7-(trifluoromethyl)-4,5,6,7-tetrahydropyrazolo[1,5-a]pyrimidine-3-carboxamide]", "values": [{"measurement": "MIC", "value": "≤ 1", "unit": "µM"}]}, {"compound": "Cc1ccc([C@H]2C[C@@H](C(F)(F)F)n3ncc(C(=O)NCC4CCCCC4)c3N2)cc1", "note": "(relative stereo) [Example 26, Cis-N-(cyclohexylmethyl)-5-(p-tolyl)-7-(trifluoromethyl)-4,5,6,7-tetrahydropyrazolo[1,5-a]pyrimidine-3-carboxamide]", "values": [{"measurement": "MIC", "value": "1 to 2", "unit": "µM"}]}]}
